Experimental data reported in US20170119776A1, “CHIRAL 2,5-DISUBSTITUTED CYCLOPENTANECARBOXYLIC ACID DERIVATIVES AND USE THEREOF” (BAYER PHARMA AKTIENGESELLSCHAFT, priority 2014, published 2017).

Key:
Type in all cases: biochemical
MMP-3 of the mouse = biological target: T1, MMP-3 of the mouse (Mus musculus, UniProt P28862); assay: In vitro MMP-3 inhibition test of the mouse
T1 construct: purchased R&D Systems 548-MP
Excerpt: (§1) The activity strength of the compounds according to the invention towards other MMPs (and therefore their selectivity) is likewise ascertained in in vitro inhibition tests. The MMP-mediated amidolytic cleavage of a suitable peptide substrate also leads here to a fluorescent light increase. The signal intensity of the fluorescent light is directly proportional to the enzyme activity. The active concentration of a test compound at which half of the enzyme is inhibited (50% signal intensity of the fluorescent light) is given as IC50 value.
Recombinant MMP-3 of the mouse (R&D Systems, 548-MP) is chemically activated in accordance with the manufacturer's instructions using APMA. 1 μl of the test compound to be analysed (as a solution in DMSO, suitable concentrations e.g. 1 nM to 30 μM) is pipetted into 24 μl of activated enzyme (final concentration e.g. 0.5 nM) in reaction buffer (50 mM Tris/HCl pH 7.5, 10 mM CaCl2, 150 mM NaCl, 0.05% Brij®-35) in a white 384-hole microtiter plate (MTP). The enzymatic reaction is started by adding the intramolecularly quenched substrate Mca-Arg-Pro-Lys-Pro-Val-Glu-Nval-Trp-Arg-Lys(Dnp)-NH2 (final concentration e.g. 5 μM; R&D Systems, ES-002), such that a total test volume of 50 μl results. The progress of the MMP-3 reaction is measured by measuring the fluorescence intensity (excitation 320 nm, emission 410 nm) over a suitable period (e.g. over 120 min at a temperature of 32° C.).
Tables 3A and 3B below give the IC50 values from these tests for the inhibition of rodent MMPs for representative embodiment examples of the present invention and also for two structurally related comparison compounds from the prior art (as racemate and separated enantiomer)→(in part as average values from several independent individual determinations and rounded to two significant places). The IC50 values were determined for racemates and enantiomers from differently generated DMSO stock solutions. Whereas an automatically created DMSO stock solution from the internal substance logistics was used for racemates by means of a standard method, in the case of enantiomers, in each case a freshly produced, manually prepared DMSO stock solution was used for a more precise direct comparison of the enantiomers with one another.

MMP-8 = biological target: T2, MMP-8 (Homo sapiens, UniProt P22894); assay: In vitro MMP-8 inhibition test
T2 construct: purchased R&D Systems 908-MP
Excerpt: as §1
Recombinant MMP-8 (R&D Systems, 908-MP) is chemically activated in accordance with the manufacturer's instructions using APMA. 1 μl of the test compound to be analysed (as a solution in DMSO, suitable concentrations e.g. 1 nM to 30 μM) is pipette into 24 μl of activated enzyme (final concentration e.g. 0.5 nM) in reaction buffer (50 mM Tris/HCl pH 7.5, 10 mM CaCl2, 150 mM NaCl, 0.05% Brij®-35) in a white 384-hole microtiter plate (MTP). The enzymatic reaction is started by adding the intramolecularly quenched substrate Mca-Pro-Leu-Gly-Leu-Dpa(Dnp)-Ala-Arg-NH2 (final concentration e.g. 10 μM; R&D Systems, ES-001), such that a total test volume of 50 μl results. The progress of the MMP-8 reaction is measured by measuring the fluorescence intensity (excitation 320 nm, emission 410 nm) over a suitable period (e.g. over 120 min at a temperature of 32° C.).
The IC50 values were determined for racemates and enantiomers from differently generated DMSO stock solutions. Whereas an automatically produced DMSO stock solution from the internal substance logistics was used for racemates by means of a standard method, in the case of enantiomers a freshly produced, manually prepared DMSO stock solution was used in each case for a more precise direct comparison of the enantiomers with one another.

[1] = biological target: T3, human macrophage elastase (HME/hMMP-12) (Homo sapiens, UniProt P39900); assay: In vitro HME inhibition test (standard / high-sensitivity), without BSA; details: absence of serum albumin (BSA)
T3 construct: 0.5 nM HME; purchased R&D Systems 917-MP
Excerpt: The activity of the compounds according to the invention towards HME (MMP-12) is ascertained in an in vitro inhibition test. The HME-mediated amidolytic cleavage of a suitable peptide substrate leads herein to a fluorescent light increase. The signal intensity of the fluorescent light is directly proportional to the enzyme activity. The active concentration of a test compound at which half of the enzyme is inhibited (50% signal intensity of the fluorescent light) is given as IC50 value.
In a 384 hole microtiter plate, in a test volume of in total 41 μl of the test buffer (0.1 M HEPES pH 7.4, 0.15 M NaCl, 0.03 M CaCl2, 0.004 mM ZnCl2, […], 0.005% Brij®), the enzyme (0.5 nM HME; R&D Systems, 917-MP, autocatalytic activation according to the manufacturer's instructions) and the intramolecularly quenched substrate [5 μM Mca-Pro-Leu-Gly-Leu-Glu-Glu-Ala-Dap(Dnp)-NH2; Bachem, M-2670] are incubated in the absence and presence of the test substance (as solution in DMSO) for two hours at 37° C. The fluorescent light intensity of the test batches is measured (excitation 323 nm, emission 393 nm). The IC50 values are ascertained by plotting the fluorescent light intensity against the active ingredient concentration.
If subnanomolar IC values are produced for high potent test substances in the standard HME inhibition test described above, then a modified test is used for their more precise determination. Here, a ten-fold lower enzyme concentration is used (final concentration e.g. 0.05 nM), in order to achieve an increased sensitivity of the test. The incubation time of the test is accordingly chosen to be longer (e.g. 16 hours).
Table 1 below gives the IC50 values from these HME inhibition tests for the working examples of the present invention and also for two structurally related comparison compounds from the prior art (as racemate or separated enantiomers)→(sometimes as average values from several independent individual determinations and rounded to two significant places). The IC50 values were determined for racemates and enantiomers from differently generated DMSO stock solutions. Whereas an automatically created DMSO stock solution from the internal substance logistics was used for racemates by means of a standard method, for enantiomers and for a more precise direct comparison of the enantiomers with one another, in each case a freshly produced, manually prepared DMSO stock solution was used.

T2 sequence (P22894 101-467): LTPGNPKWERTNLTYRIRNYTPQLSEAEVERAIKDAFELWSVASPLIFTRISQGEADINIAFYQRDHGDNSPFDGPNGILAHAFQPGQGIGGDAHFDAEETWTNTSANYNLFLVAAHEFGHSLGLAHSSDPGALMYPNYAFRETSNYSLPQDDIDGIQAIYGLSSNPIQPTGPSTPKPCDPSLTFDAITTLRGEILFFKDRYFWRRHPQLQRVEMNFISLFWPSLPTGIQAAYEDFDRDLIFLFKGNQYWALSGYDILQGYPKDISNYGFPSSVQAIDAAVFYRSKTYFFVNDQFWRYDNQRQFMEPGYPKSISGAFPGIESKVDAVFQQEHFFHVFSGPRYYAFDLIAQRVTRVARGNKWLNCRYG
T3 sequence (P39900 106-470): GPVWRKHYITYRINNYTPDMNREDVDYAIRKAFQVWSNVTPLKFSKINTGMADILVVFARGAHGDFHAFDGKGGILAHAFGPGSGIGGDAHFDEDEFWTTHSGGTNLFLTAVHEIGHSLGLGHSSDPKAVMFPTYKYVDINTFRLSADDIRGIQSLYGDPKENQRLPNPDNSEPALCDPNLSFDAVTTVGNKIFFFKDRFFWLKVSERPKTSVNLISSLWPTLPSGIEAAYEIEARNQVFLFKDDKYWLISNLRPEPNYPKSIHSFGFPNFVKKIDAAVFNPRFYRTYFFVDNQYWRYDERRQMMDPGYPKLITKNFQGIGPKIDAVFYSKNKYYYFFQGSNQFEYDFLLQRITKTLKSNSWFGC
T1 sequence (P28862 100-477): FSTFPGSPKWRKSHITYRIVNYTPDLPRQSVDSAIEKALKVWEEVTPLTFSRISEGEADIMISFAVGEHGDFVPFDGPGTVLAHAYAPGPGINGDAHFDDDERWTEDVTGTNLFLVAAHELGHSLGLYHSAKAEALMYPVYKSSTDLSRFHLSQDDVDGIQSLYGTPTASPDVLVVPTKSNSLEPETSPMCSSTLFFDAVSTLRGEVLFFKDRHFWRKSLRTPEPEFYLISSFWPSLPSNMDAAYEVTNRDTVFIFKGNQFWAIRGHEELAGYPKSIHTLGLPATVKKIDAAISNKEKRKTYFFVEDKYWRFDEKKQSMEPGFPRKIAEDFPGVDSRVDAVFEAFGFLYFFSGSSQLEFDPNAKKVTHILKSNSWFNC

Compound | IC50 (MMP-3 of the mouse) [nM] | IC50 (MMP-8) [nM] | IC50 [1] [nM]
O=C(O)[C@H]1[C@H](Cn2nnc3ccccc3c2=O)CC[C@@H]1C(=O)c1ccc(-c2ccc(Cl)cc2)cc1 (racemic) [Comparative Example A-1, (1RS,2RS,5SR)-2-[(4′-chlorobiphenyl-4-yl)carbonyl]-5-[(4-oxo-1,2,3-benzotriazin-3(4H)-yl)methyl]cyclopentanecarboxylic acid (racemate)] | 17 | < 0.61 | 0.043
O=C(O)[C@@H]1[C@@H](Cn2nnc3ccccc3c2=O)CC[C@H]1C(=O)c1ccc(-c2ccc(Cl)cc2)cc1 (single isomer, unassigned; enantiomer 2) [Comparative Example A-3, (1RS,2RS,5SR)-2-[(4′-Chlorobiphenyl-4-yl)carbonyl]-5-[(4-oxo-1,2,3-benzotriazin-3(4H)-yl)methyl]cyclopentanecarboxylic acid (enantiomer 2)] | 11.3 | < 0.61 | 0.018
O=C(O)[C@H]1[C@H](Cn2nnc3ccccc3c2=O)CC[C@@H]1C(=O)c1ccc(OCc2ccccc2)cc1 (racemic) [Example 1, (+/−)-(1RS,2RS,5SR)-2-[4-(Benzyloxy)benzoyl]-5-[(4-oxo-1,2,3-benzotriazin-3(4H)-yl)methyl]cyclopentanecarboxylic acid (racemate)] | 290 | 9.2 | 0.059
CCCCCOc1ccc(C(=O)CC(CCn2nnc3ccccc3c2=O)C(=O)O)cc1 (single isomer, unassigned; enantiomer 1) [Comparative Example B-2, (+)-4-Oxo-2-[2-(4-oxo-1,2,3-benzotriazin-3(4H)-yl)ethyl]-4-[4-(pentyloxy)phenyl]butanoic acid (enantiomer 1)] | 6750 | 275 | 1.6

Results, then the compound that gave them:

IC50 (MMP-3 of the mouse) [nM] | IC50 (MMP-8) [nM] | IC50 [1] [nM] | Compound
13000 | 706 | 1.5 | CCCCCOc1ccc(C(=O)CC(CCn2nnc3ccccc3c2=O)C(=O)O)cc1 (racemic) [Comparative Example B-1, (+/−)-4-Oxo-2-[2-(4-oxo-1,2,3-benzotriazin-3(4H)-yl)ethyl]-4-[4-(pentyloxy)phenyl]butanoic acid (racemate)]
87 | 10.1 | 0.071 | O=C(O)[C@H]1[C@H](Cn2nnc3ccccc3c2=O)CC[C@@H]1C(=O)c1ccc(OCc2ccccc2)cc1 [Example 2, (+)-(1S,2S,5R)-2-[4-(Benzyloxy)benzoyl]-5-[(4-oxo-1,2,3-benzotriazin-3(4H)-yl)methyl]cyclopentanecarboxylic acid]
